Laboratory results as given in patent EP0885006B1, “PHARMACEUTICAL COMPOSITION ENABLING TO INHIBIT CANCER METASTASIS FORMATION CONTAINING N-ACETYL-CYSTEINE AND DOXORUBICIN” (ZAMBON GROUP S.p.A., priority 1996, dated 1997).
Several values for one entry are separate records, joined by “and”; a condition that tells them apart may be missing. Equal values may be shown once.

Tested on: B16-BL6 murine melanoma cells
Experiment: Tumorigenicity and "spontaneous" metastasis assay (s.c. footpad injection of cancer cells)
Format: in vivo, female C57BL/6 mice
Settings: for Survival (days) (mean ± ES) / Lung metastases Frequency (%) / Lung metastases No. (mean ± ES) / Primary tumors Frequency (%) / Primary tumors Weight g (mean ± ES) / Local recurrencies Frequency (%) / Local recurrencies Weight g (mean ± ES): DOX+NAC same doses; for reduction in the number of lung metastases with respect to controls / reduction in the weight of primary tumors with respect to controls / weight of primary tumors 4 weeks after injection of cancer cells (effect in words) / reduction in the weight of local recurrencies with respect to controls: combined same doses
Protocol: DOX was used in the form of commercial injectable product, containing 10 mg of drug per vial (Adriblastina®, Farmitalia - Carlo Erba, Milano, Italia), to be dissolved in distilled water when injected. In the experiments wherein the oral administration was provided, NAC was used in the form of commercial product containing 200 mg of NAC per dosage (Fluimucil®, Zambon Italia, Vicenza), directly dissolved in the drinking water of mice. In the experiments wherein the parenteral (i.p. or i.v.) administration of NAC was foreseen, a 98% pure laboratory reagent (Sigma Chemical Co., St. Louis, MO, U.S.A.) was used, dissolved in a phosphate buffer (PBS), pH 7.4, and furtherly brought to neutrality with NaOH 0.1 N ("spontaneous" metastasis assays) or in NaCl 0.15 M, taking the solution to pH 7.0 (experimental metastasis assays).
A total of 385 adult mice was used (Charles River, Calco, Como, Italia) of which 196 female nude (CD-1)BR mice, aged 7 weeks, average weight of 25 g and 189 female C57BL/6 mice aged 6-8 weeks, average weight of 20 g, used in the experimental metastasis assays and in those of "spontaneous" metastases respectively. The (CD-1)BR mice were housed in sterile cages with filtering cover, in a number of 3 animals per cage, at a room temperature of 26-28°C, with a relative humidity of 55%, a ventilation accounting for 12-15 air/h renewals and a 12 hours day/night cycle; the C57BL/6 mice were stabulated in a number of 5 animals per cage, at a temperature of 25-27°C, with a relative humidity of 50% and a 12 hours day/night cycle. The (CD-1)BR mice received a special diet sterilized under vacuum (Mucedola S.r.L, Settimo Milanese, Milano, Italia) and sterilized drinking water; the C57BL/6 mice received a standard rodent diet (MIL Topi e Ratti, Morini, S. Polo d'Enza, Reggio Emilia, Italia) and drinking water ad libitum throughout the duration of the experiments. Within the experiments wherein the sacrifice of mice was foreseen at a scheduled time, killing was carried out by means of ethyl ether anaesthesia and subsequent cervical dislocation. The stabulation and all the animal treatments were carried out in accordance with the national and Community guidelines (D.L. 27.01.1992 N. 116; 86/609/EEC Directive).
In this kind of experiment, B16-BL6 murine melanoma cells were injected s.c. in the footpad of the right hind leg (5 x 10^5 cells/mouse in experiment #5, 2 x 10^5 cells/mouse in experiments #6, #7 and #8).
With such a technique a primary tumor is formed in the side of injection, from which starts the spread of metastases to the lungs.
Also in these experiments 4 groups were taken into consideration. In all the experiments NAC was administered with drinking water, at a dose of 2 g/kg body weight, starting 48-72 hours before injection of cancer cells and continuing until the end of each experiment. In experiment #5 DOX was administered by i.p. route (2 mg/kg body weight), 24 hours after injection of cancer cells. In experiments #6, #7 and #8 DOX was instead administered by i.v. route (10 mg/kg body weight), 24 hours (#6 and #7) or 7 days (#8) after injection of cancer cells.
In experiments #5, #7 and #8 mice were maintained until spontaneous death, so as to have indications also about the effect of treatment on survival. Both the primary tumors (frequency and weight) and the lung metastases (frequency and number) were therefore evaluated at the time of death.
In experiment #6 instead, 4 weeks after injection of the cancer cells, the leg carrying the primary tumor was removed. Further 4 weeks later the animals were killed, the tumors which gave recurrencies in the leg stump were excised and weighed, and the lung metastases were scored.
Four additional experiments, two of which partially overlapping (#7 and #8) were designed in order to evaluate the effects of NAC and DOX, individually or in combination, on the formation of local primary tumors and on the subsequent spread of lung metastases. […]

[1] = experiment #5, 5 x 10^5 cells/mouse, DOX 2 mg/kg i.p. +24h, NAC 2 g/kg p.o. -48 h/end
[2] = experiment #5, 5 x 10^5 cells/mouse, DOX 2 mg/kg i.p. +24h, NAC 2 g/kg p.o. -48 h/end, at spontaneous death
[3] = experiment #5, DOX 2 mg/kg i.p. +24 h, NAC 2 g/kg p.o.
[4] = experiment #6, 2 x 10^5 cells/mouse, DOX 10 mg/kg i.v. +24h, NAC 2 g/kg p.o. -48 h/56 days, leg removed 4 weeks after cells
[5] = experiment #6, 2 x 10^5 cells/mouse, DOX 10 mg/kg i.v. +24h, NAC 2 g/kg p.o. -48 h/56 days, sacrifice at 8 weeks
[6] = experiment #6, DOX 10 mg/kg +24 h, NAC 2 g/kg p.o.
[7] = experiment #6, DOX 10 mg/kg +24 h, NAC 2 g/kg p.o., 4 weeks
[8] = experiment #6, DOX 10 mg/kg +24 h, NAC 2 g/kg p.o., 8 weeks
[9] = experiment #7 (NAC group common to #7/8), DOX 10 mg/kg i.v. +24 h, NAC 2 g/kg p.o.
[10] = experiment #7, 2 x 10^5 cells/mouse, DOX 10 mg/kg i.v. +24h, NAC 2 g/kg p.o. -72 h/end
[11] = experiment #7, 2 x 10^5 cells/mouse, DOX 10 mg/kg i.v. +24h, NAC 2 g/kg p.o. -72 h/end, at spontaneous death
[12] = experiment #8, 2 x 10^5 cells/mouse, DOX 10 mg/kg i.v. +7 gg. (7 days), NAC 2 g/kg p.o. -72 h/end
[13] = experiment #8, 2 x 10^5 cells/mouse, DOX 10 mg/kg i.v. +7 gg. (7 days), NAC 2 g/kg p.o. -72 h/end, at spontaneous death

SMILES: COc1cccc2c1C(=O)c1c(O)c3c(c(O)c1C2=O)C[C@@](O)(C(=O)CO)C[C@@H]3O[C@H]1C[C@H](N)[C@H](O)[C@H](C)O1 [DOX, Doxorubicin]
- Survival (days) (mean ± ES) [1]: 31.2 ± 4.7 days
- Lung metastases Frequency (%) [2]: 100.0%
- Lung metastases No. (mean ± ES) [2]: 10.0 ± 6.4 No.
- Primary tumors Frequency (%) [2]: 100.0%
- Primary tumors Weight g (mean ± ES) [2]: 3.0 ± 1.3 g
- weight of primary tumors (effect in words) [3]: did not decrease to a significant extent
- reduction in the number of lung metastases with respect to controls [3]: 6 fold and 6.0 fold
- reduction in the weight of primary tumors with respect to controls [3]: 1.3 fold
- Primary tumors Frequency (%) [4]: 92.3%
- Primary tumors Weight g (mean ± ES) [4]: 0.21 ± 0.05 g
- Local recurrencies Frequency (%) [5]: 69.2%
- Local recurrencies Weight g (mean ± ES) [5]: 2.2 ± 0.7 g
- Lung metastases Frequency (%) [5]: 75.0%
- Lung metastases No. (mean ± ES) [5]: 32.6 ± 12.2 No.
- weight of primary tumors 4 weeks after injection of cancer cells (effect in words) [6]: not affected
- reduction in the weight of primary tumors with respect to controls [7]: 1.4 fold
- reduction in the number of lung metastases with respect to controls [8]: 0.7 fold
- reduction in the weight of local recurrencies with respect to controls [8]: 1.1 fold
- reduction in the number of lung metastases with respect to controls [9]: 0.9 fold
- Survival (days) (mean ± ES) [10]: 51.3 ± 1.9 days
- Lung metastases Frequency (%) [11]: 76.9%
- Lung metastases No. (mean ± ES) [11]: 23.0 ± 10.0 No.
- Primary tumors Frequency (%) [11]: 100.0%
- Primary tumors Weight g (mean ± ES) [11]: 2.2 ± 0.6 g
- survival (effect in words) (experiment #7, DOX 10 mg/kg i.v. 24 hours after injection of cancer cells): prolonged survival
- Survival (days) (mean ± ES) [12]: 49.0 ± 2.8 days
- Lung metastases Frequency (%) [13]: 63.6%
- Lung metastases No. (mean ± ES) [13]: 12.6 ± 9.0 No.
- Primary tumors Frequency (%) [13]: 100.0%
- Primary tumors Weight g (mean ± ES) [13]: 2.3 ± 0.6 g
- survival curves and mean survival time (effect in words) (experiment #8, DOX 10 mg/kg i.v. 7 days after injection of cancer cells, NAC 2 g/kg p.o.): did not affect the survival curves nor the mean survival time

SMILES: CC(=O)N[C@@H](CS)C(=O)O [NAC, N-acetyl-cysteine]
- Survival (days) (mean ± ES) [1]: 32.2 ± 2.5 days
- Lung metastases Frequency (%) [2]: 83.3%
- Lung metastases No. (mean ± ES) [2]: 8.3 ± 6.8 No.
- Primary tumors Frequency (%) [2]: 100.0%
- Primary tumors Weight g (mean ± ES) [2]: 1.9 ± 0.4 g
- weight of primary tumors (effect in words) [3]: more than halved
- reduction in the number of lung metastases with respect to controls [3]: 7.2 fold
- reduction in the weight of primary tumors with respect to controls [3]: 2.1 fold
- Primary tumors Frequency (%) [4]: 93.3%
- Primary tumors Weight g (mean ± ES) [4]: 0.28 ± 0.04 g
- Local recurrencies Frequency (%) [5]: 53.3%
- Local recurrencies Weight g (mean ± ES) [5]: 2.8 ± 0.8 g
- Lung metastases Frequency (%) [5]: 45.5%
- Lung metastases No. (mean ± ES) [5]: 12.9 ± 7.8 No.
- weight of primary tumors 4 weeks after injection of cancer cells (effect in words) [6]: not affected
- reduction in the weight of primary tumors with respect to controls [7]: 1.0 fold
- reduction in the number of lung metastases with respect to controls [8]: 1.6 fold
- reduction in the weight of local recurrencies with respect to controls [8]: 0.9 fold
- reduction in the number of lung metastases with respect to controls [9]: 2.1 fold
- Survival (days) (mean ± ES) [10]: 60.1 ± 3.7 days
- Lung metastases Frequency (%) [11]: 18.2%
- Lung metastases No. (mean ± ES) [11]: 9.5 ± 8.3 No.
- Primary tumors Frequency (%) [11]: 100.0%
- Primary tumors Weight g (mean ± ES) [11]: 1.9 ± 0.6 g
- Survival (days) (mean ± ES) [12]: 60.1 ± 3.7 days
- Lung metastases Frequency (%) [13]: 18.2%
- Lung metastases No. (mean ± ES) [13]: 9.5 ± 8.3 No.
- Primary tumors Frequency (%) [13]: 100.0%
- Primary tumors Weight g (mean ± ES) [13]: 1.9 ± 0.6 g
- inhibition in the frequency of lung metastases with respect to controls (experiments #7/8, NAC 2 g/kg p.o.): 4.8 fold
- survival of mice (effect in words) (experiments #7 and #8, NAC 2 g/kg p.o., DOX 10 mg/kg i.v. +24 h or +7 days): enhanced remarkably the survival
